# In paper PMC10638401, “Mannich-type modifications of (−)-cannabidiol and (−)-cannabigerol leading to new, bioactive derivatives” (Scientific Reports, 2023):
# Like-named read-outs stand apart in the source and are kept apart here.
# Tests used:
# A2780 cells = assay: Antiproliferative MTT assay, 72 h; format: cell-based, human; conditions: for antiproliferative activity (in words): A2780, 10 and 30 μM
# Excerpt: (§1) Human adherent cancer cell lines A2780, MDA-MB-231 and MCF-7 were obtained from ECACC (European Collection of Cell Cultures, Salisbury, UK; Cat. No.93112519, 92020424, 86012803, respectively). SiHa cell line was obtained from ATCC (American Tissue Culture Collection, Manassas, Virginia, USA; Cat. No. HTB-35). All cell lines used for antiproliferative assay were maintained in Eagle's Minimum Essential Medium (EMEM) completed with 10% fetal bovine serum (FBS), 1% non-essential amino acid solution, and 1% penicillin, streptomycin, and amphotericin B mixture under cell culture conditions described before. All the utilized media and supplements were purchased from Lonza Group Ltd. (Basel, Switzerland).
# (§2) The antiproliferative actions of the prepared molecules were determined by the same assay against a panel of adherent human cancer cell lines containing cervical (SiHa), ovarian (A2780) and breast (MCF7, MDA-MB-231) cell lines. Cells were plated onto 96-well microplates (5000 cells/well) and after an overnight incubation treated with two concentrations (10 or 30 μM) of the test substances for 72 h under cell culture conditions. Subsequently, MTT (5 mg/ml in phosphate buffer) was added to the wells, followed by incubation for 4 h. The supernatant was removed, the formazan crystals were then dissolved in 100 µl DMSO. Finally, absorbance values were determined by a microplate reader (BMG Labtech, Ortenberg, Germany) at 545 nm. Two independent measurements were performed with five parallel wells. Results were expressed as percentage of cell proliferation inhibition compared to non-treated control samples regarded as 0%.
# MCF7 cells = assay: Antiproliferative MTT assay, 72 h; format: cell-based, human; conditions: for antiproliferative activity (in words): MCF7, 10 and 30 μM; for inhibition of the proliferation: MCF7, 30 μM
# Excerpt: as §1, §2
# MDA-MB-231 cells = assay: Antiproliferative MTT assay, 72 h; format: cell-based, human; conditions: for antiproliferative activity (in words): MDA-MB-231, 10 and 30 μM
# Excerpt: as §1, §2
# SiHa cells = assay: Antiproliferative MTT assay, 72 h; format: cell-based, human; conditions: for antiproliferative activity (in words): 10 and 30 μM
# Excerpt: as §1, §2
# Bacillus subtilis = assay: MIC, broth micro dilution
# Experimental: (§5) According to CLSI guideline the Minimal Inhibitory Concentrations (MICs) of the prepared compounds were determined with the broth micro dilution method. After an overnight growth on 5% bovine blood agar plates at 35 °C bacterial strains were suspended in physiological saline in order to reach the density of 0.5 McFarland for inoculation. Stock solutions containing different concentrations of the substances were prepared in DMSO and H2O (1:1). These were twofold serially diluted from 256 to 0.5 mg/l in Mueller–Hinton broth, and 100 ml of each dilution was inoculated with 10 ml of each bacterial suspension.
# [1] = tested on: MSSA (Methicillin Sensitive Staphylococcus aureus); assay: MIC, broth micro dilution
# Experimental: as §5
# [2] = tested on: MRSA (Methicillin Resistant Staphylococcus aureus); assay: MIC, broth micro dilution
# [3] = tested on: Staphylococcus epidermidis biofilm forming; assay: MIC, broth micro dilution
# Experimental: as §5
# [4] = tested on: Staphylococcus epidermidis mecA; assay: MIC, broth micro dilution
# [5] = tested on: Enterococcus faecalis 29 212; assay: MIC, broth micro dilution
# [6] = tested on: Enterococcus faecalis 15 376 VanA; assay: MIC, broth micro dilution
# Experimental: as §5
# [7] = tested on: Enterococcus faecalis 51299 VanB; assay: MIC, broth micro dilution
# SARS-CoV-2 [8] = assay: SARS-CoV-2 cytopathic effect (CPE) inhibition assay in Vero E6 cells (XTT); format: cell-based; conditions: for EC50: Severe acute respiratory syndrome coronavirus 2, Vero C1008, 72 h, Vero E6 cells, 3 days post-infection, XTT; for IC50: Severe acute respiratory syndrome coronavirus 2, Vero C1008, read-out: IC50 (anti-SARS-CoV-2 activity, Figure 8)
# Experimental: (§3) CBD and CBG derivatives were further tested for their ability to inhibit SARS-CoV-2 replication in Vero E6 cells. Initially, the inhibition of virus-induced cytopathic effect was measured by addition of twofold serial dilutions of each derivative to the cells, followed by the infection with SARS-CoV-2 and determination of the cell viability 3 days post-infection by XTT assay. Concurrently, the cytotoxicity of each compound was assessed from identical dilutions in uninfected Vero E6 cells. To confirm anti-SARS-CoV-2 activity in the CPE inhibition assay, selected compounds were tested in immunofluorescence assay, where inhibition of SARS-CoV-2 replication was monitored as reduction in nucleoprotein expression using fluorescence microscope. […] Among the CBG derivatives, we can find quite cytotoxic and non-cytotoxic derivatives as well.
# (§4) For CPE-based assay, two-fold fold serial dilutions of compounds from 100 µM were added in triplicate in a 384-well plate with 5000 Vero E6 cells in DMEM medium with 2% FBS, 100 U of penicillin/ml and 100 µg of streptomycin/ml (all Merck). After 1 h incubation SARS-CoV-2 (strain hCoV-19/Czech Republic/NRL_6632_2/2020) was added at multiplicity of infection […]. Following three days incubation at 37 °C in 5% CO2 the cell viability was determined by addition of XTT solution (Sigma-Aldrich) for 4 h and the absorbance was measured using EnVision plate reader (Perkin Elmer). Drug concentrations required to reduce viral cytopathic effect by 50% (EC50) were calculated using nonlinear regression from plots of percentage cell viability versus log10 drug concentration using GraphPad Prism (version 9.0.0, GraphPad Software, LLC). For immunofluorescence assay, two-fold fold serial dilutions of compounds from 100 µM were added in triplicate in 96-well plate with 15,000 Vero E6 cells plated day before in the same medium as above. After 1 h incubation, SARS-CoV-2 was added at multiplicity of infection 0.05 IU/cell. After three days of incubation, cells were fixed with 4% paraformaldehyde, permeabilized with 0.2% Triton X100 (both Merck), washed, incubated with anti-SARS-CoV-2antibody (mouse monoclonal antibody detecting SARS-CoV-2 nucleoprotein) for 2 h at room temperature. Followed by 1.5 h incubation with Cy3-labeled donkey anti-mouse IgG (Jackson ImmunoResearch Europe) and documented using fluorescence microscope with camera (Olympus). Images were processed in ImageJ software (NIH) and compound concentrations required to reduce fluorescence by 50% (EC50s) were calculated from plots of percentage of fluorescent cells versus log10 drug concentration using nonlinear regression analysis as above. Cytotoxicity was evaluated by incubating with the same two-fold serial dilutions of each compound as above with Vero E6 cells in 384-well plate.
# SARS-CoV-2 [9] = assay: SARS-CoV-2 immunofluorescence assay (nucleoprotein expression) in Vero E6 cells; format: cell-based; conditions: Severe acute respiratory syndrome coronavirus 2, Vero C1008, 72 h, three days
# Experimental: as §3, §4
# in vitro = conditions: African green monkey
# [10] = Enterococcus faecalis, 15376VANA
# [11] = Enterococcus faecalis, 51299VANB
compound,measurement,setting,value
C=C(C)[C@@H]1CCC(C)=C[C@H]1c1c(O)cc(CCCCC)c2c1OCN(CCCC)C2.Cl [Compound 8s],antiproliferative activity (in words),A2780 cells,no significant difference was detected
same,antiproliferative activity (in words),MCF7 cells,no significant difference was detected
same,antiproliferative activity (in words),MDA-MB-231 cells,no significant difference was detected
same,antiproliferative activity (in words),SiHa cells,no significant difference was detected
same,MIC,Bacillus subtilis,128 µg/mL
same,MIC,[1],128 µg/mL
same,MIC,[2],128 µg/mL
same,MIC,[3]; Staphylococcus epidermidis biofilm forming,128 µg/mL
same,MIC,[4]; Staphylococcus epidermidis mecA,128 µg/mL
same,MIC,[5]; Enterococcus faecalis 29 212,2 µg/mL
same,MIC,[6]; Enterococcus faecalis 15 376 VanA,128 µg/mL
same,MIC,[7]; Enterococcus faecalis 51299 VanB,2 µg/mL
C=C(C)[C@@H]1CCC(C)=C[C@H]1c1c(O)cc(CCCCC)c2c1OCN(Cc1ccccc1)C2 [Compound 10],inhibition of the proliferation,MCF7 cells,considerable growth inhibition
same,EC50,SARS-CoV-2 [8],9 ± 0.51 µM
same,IC50,SARS-CoV-2 [8],9 µM
same,EC50,SARS-CoV-2 [9],~42 µM
same,CC50,in vitro,> 100 µM
same,MIC,Bacillus subtilis,> 256 µg/mL
same,MIC,[1]; Staphylococcus aureus,> 256 µg/mL
same,MIC,[2]; Staphylococcus aureus,> 256 µg/mL
same,MIC,[3]; Staphylococcus epidermidis,> 256 µg/mL
same,MIC,[4]; Staphylococcus epidermidis,> 256 µg/mL
same,MIC,"[5]; Enterococcus faecalis, 29212",> 256 µg/mL
same,MIC,[6]; [10],> 256 µg/mL
same,MIC,[7]; [11],> 256 µg/mL
C=C(C)[C@@H]1CCC(C)=C[C@H]1c1c(O)cc(CCCCC)c2c1OCN(CCCC(=O)O)C2 [Compound 12],antiproliferative activity (in words),A2780 cells,"None of the other tested CBD analogs (9, 11, and 12) exhibited substantial antiproliferative activity"
same,antiproliferative activity (in words),MCF7 cells,"None of the other tested CBD analogs (9, 11, and 12) exhibited substantial antiproliferative activity"
same,antiproliferative activity (in words),MDA-MB-231 cells,"None of the other tested CBD analogs (9, 11, and 12) exhibited substantial antiproliferative activity"
same,antiproliferative activity (in words),SiHa cells,"None of the other tested CBD analogs (9, 11, and 12) exhibited substantial antiproliferative activity"
same,EC50,SARS-CoV-2 [8],11 ± 1.2 µM
same,IC50,SARS-CoV-2 [8],11 µM
same,EC50,SARS-CoV-2 [9],39 ± 1.4 µM
same,CC50,in vitro,~56 µM
same,MIC,Bacillus subtilis,> 256 µg/mL
same,MIC,[1]; Staphylococcus aureus,> 256 µg/mL
same,MIC,[2]; Staphylococcus aureus,> 256 µg/mL
same,MIC,[3]; Staphylococcus epidermidis,> 256 µg/mL
same,MIC,[4]; Staphylococcus epidermidis,> 256 µg/mL
same,MIC,"[5]; Enterococcus faecalis, 29212",> 256 µg/mL
same,MIC,[6]; [10],> 256 µg/mL
same,MIC,[7]; [11],> 256 µg/mL
C=C(C)[C@@H]1CCC(C)=C[C@H]1c1c(O)c(CN(CC)CC)c(CCCCC)c(CN(CC)CC)c1O [Compound 13],inhibition of the proliferation (in words),"A2780 cells; A2780, 10 μM",no relevant action
same,inhibition of the proliferation,"A2780 cells; A2780, 30 μM",similarly effective than CBD
same,inhibition of the proliferation (in words),"MCF7 cells; MCF7, 10 μM",no relevant action
same,inhibition of the proliferation,MCF7 cells,similarly effective than CBD
same,inhibition of the proliferation (in words),"MDA-MB-231 cells; MDA-MB-231, 10 μM",no relevant action
same,inhibition of the proliferation,"MDA-MB-231 cells; MDA-MB-231, 30 μM",similarly effective than CBD
same,inhibition of the proliferation (in words),SiHa cells; 10 μM,no relevant action
same,inhibition of the proliferation,SiHa cells; 30 μM,similarly effective than CBD
same,EC50,SARS-CoV-2 [8],> 12 µM
same,IC50,SARS-CoV-2 [8],> 12 µM
same,CC50,in vitro,12 ± 0.28 µM
same,MIC,Bacillus subtilis,> 256 µg/mL
same,MIC,[1]; Staphylococcus aureus,> 256 µg/mL
same,MIC,[2]; Staphylococcus aureus,> 256 µg/mL
same,MIC,[3]; Staphylococcus epidermidis,> 256 µg/mL
same,MIC,[4]; Staphylococcus epidermidis,> 256 µg/mL
same,MIC,"[5]; Enterococcus faecalis, 29212",> 256 µg/mL
same,MIC,[6]; [10],> 256 µg/mL
same,MIC,[7]; [11],> 256 µg/mL
CCCCCc1cc(O)c(C/C=C(\C)CCC=C(C)C)c2c1CN(Cc1ccccc1)CO2 [Compound 17a],EC50,SARS-CoV-2 [8],> 100 µM
same,IC50,SARS-CoV-2 [8],> 100 µM
same,CC50,in vitro,> 100 µM
same,MIC,Bacillus subtilis,> 256 µg/mL
same,MIC,[1]; Staphylococcus aureus,> 256 µg/mL
same,MIC,[2]; Staphylococcus aureus,> 256 µg/mL
same,MIC,[3]; Staphylococcus epidermidis,> 256 µg/mL
same,MIC,[4]; Staphylococcus epidermidis,> 256 µg/mL
same,MIC,"[5]; Enterococcus faecalis, 29212",64 µg/mL
same,MIC,[6]; [10],> 256 µg/mL
same,MIC,[7]; [11],64 µg/mL
CCCCCc1c2c(c(C/C=C(\C)CCC=C(C)C)c3c1CN(Cc1ccccc1)CO3)OCN(Cc1ccccc1)C2 [Compound 17b],antiproliferative activity (in words),A2780 cells,ineffectiveness
same,antiproliferative activity (in words),MCF7 cells,ineffectiveness
same,antiproliferative activity (in words),MDA-MB-231 cells,ineffectiveness
same,antiproliferative activity (in words),SiHa cells,ineffectiveness
C=CCN1COc2c(c(CCCCC)c3c(c2C/C=C(\C)CCC=C(C)C)OCN(CC=C)C3)C1 [Compound 19b],antiproliferative activity (in words),A2780 cells,more active than CBG
same,antiproliferative activity (in words),MCF7 cells,more active than CBG
same,antiproliferative activity (in words),MDA-MB-231 cells,more active than CBG
same,antiproliferative activity (in words),SiHa cells,more active than CBG
CCCCCc1cc(O)c(C/C=C(\C)CCC=C(C)C)c2c1CN(CCCC(=O)O)CO2 [Compound 20],EC50,SARS-CoV-2 [8],> 100 µM
same,IC50,SARS-CoV-2 [8],> 100 µM
same,CC50,in vitro,> 100 µM
same,MIC,Bacillus subtilis,> 256 µg/mL
same,MIC,[1]; Staphylococcus aureus,> 256 µg/mL
same,MIC,[2]; Staphylococcus aureus,> 256 µg/mL
same,MIC,[3]; Staphylococcus epidermidis,> 256 µg/mL
same,MIC,[4]; Staphylococcus epidermidis,> 256 µg/mL
same,MIC,"[5]; Enterococcus faecalis, 29212",64 µg/mL
same,MIC,[6]; [10],128 µg/mL
same,MIC,[7]; [11],128 µg/mL
"CCC(CC)COC(=O)[C@H](C)N[P@](=O)(OC[C@H]1O[C@@](C#N)(c2ccc3c(N)ncnn23)[C@H](O)[C@@H]1O)Oc1ccccc1 [Remdesivir, reference compound]",EC50,SARS-CoV-2 [8],2.8 ± 0.18 µM
same,EC50,SARS-CoV-2 [9],1.2 ± 0.03 µM
same,CC50,in vitro,> 100 µM
